pIC50: −log10 of the molar value. Where two headings read alike, the source gives them in different places.

One assay has as its system LNCaP cells. Description: LNCaP cell viability assay (CellTiter-Glo). Type of assay: cell-based. To be noted: Homo sapiens, 72 h, LNCaP prostate cancer cell viability inhibition, 3 days. How it is done: LNCaP cells seeded in 96-well plates were treated with 10 μM GNE-781 or selected bivalent compounds, i.e. P-001, P-002, and P-019, following a 12-point 3-fold serial dilution. Three days after treatment, cell viability was determined using the CellTiter-Glo kit (Promega) following manufacturer's instructions. Cell viability was normalized to the mean values of 3 replicates of untreated cells. Dose-dependent response was analyzed following the least-squares non-linear regression method using the GraphPad Prism 5.0 software.
LNCaP cells were treated with GNE-781 or selected bivalent compounds for 3 days at indicated concentrations following a 3-fold serial dilution.
Cells were seeded at a density of 5000 cells per well in 96-well assay plates and treated with test compounds following a 12-point 3-fold serial dilution. Three days later, cell viability was determined using the CellTiter-Glo assay kit according to the manufacturer's instructions. The dose-response curves were determined and IC50 values were calculated using the GraphPad Prism software following a nonlinear regression (least squares fit) method.
For orientation: In ATP-based viability assays light output follows the ATP content of the culture.

In another assay the target is P300 (Homo sapiens, UniProt Q09472). Description: Immunoblotting of P300 protein levels in LNCaP or 22RV1 cells. Type of assay: cell-based. To be noted: read-out: Degradation (10 nM). On the set-up: LNCaP or 22RV1 cells that express CBP/P300 proteins were treated with GNE-781 or the bivalent compounds; endogenous in cells; host or cells: LNCaP (clone FGC) or 22RV1 cells. As to the method:
Specific exemplary bivalent compounds were characterized in LNCaP or 22RV1 cells. LNCaP or 22RV1 cells that express CBP/P300 proteins were treated with GNE-781 or the bivalent compounds disclosed herein (P-001 to P-174) for indicated hours. Cells were collected, lysed and subject to immunoblotting using an antibody specific to P300 or CBP proteins. Tubulin or vinculin was included as the loading control. DMSO was used as the negative control.
Cultured cells or tissue chunks were washed with cold PBS once and lysed in cold RIPA buffer supplemented with protease inhibitors and phosphatase inhibitors (Beyotime Biotechnology). The solutions were then incubated at 4° C. for 30 minutes with gentle agitation to fully lyse cells. Cell lysates were centrifuged at 13,000 rpm for 10 minutes at 4° C. and pellets were discarded. Total protein concentrations in the lysates were determined by BCA assays (Beyotime Biotechnology). Cell lysates were mixed with Laemmli loading buffer to 1× and heated at 99° C. for 5 min. Proteins were resolved on SDS-PAGE and visualized by chemiluminescence. Images were taken by a ChemiDoc MP Imaging system (Bio-Rad). Protein bands were quantitated using the accompanied software provided by Bio-Rad.
(In general: In western blotting, separated proteins are transferred to a membrane and probed.)

The mark [1] stands for this setting: percentage of inhibition of p300 at 10 nM (Table 3).

Sequence of P300 (Q09472 whole entry): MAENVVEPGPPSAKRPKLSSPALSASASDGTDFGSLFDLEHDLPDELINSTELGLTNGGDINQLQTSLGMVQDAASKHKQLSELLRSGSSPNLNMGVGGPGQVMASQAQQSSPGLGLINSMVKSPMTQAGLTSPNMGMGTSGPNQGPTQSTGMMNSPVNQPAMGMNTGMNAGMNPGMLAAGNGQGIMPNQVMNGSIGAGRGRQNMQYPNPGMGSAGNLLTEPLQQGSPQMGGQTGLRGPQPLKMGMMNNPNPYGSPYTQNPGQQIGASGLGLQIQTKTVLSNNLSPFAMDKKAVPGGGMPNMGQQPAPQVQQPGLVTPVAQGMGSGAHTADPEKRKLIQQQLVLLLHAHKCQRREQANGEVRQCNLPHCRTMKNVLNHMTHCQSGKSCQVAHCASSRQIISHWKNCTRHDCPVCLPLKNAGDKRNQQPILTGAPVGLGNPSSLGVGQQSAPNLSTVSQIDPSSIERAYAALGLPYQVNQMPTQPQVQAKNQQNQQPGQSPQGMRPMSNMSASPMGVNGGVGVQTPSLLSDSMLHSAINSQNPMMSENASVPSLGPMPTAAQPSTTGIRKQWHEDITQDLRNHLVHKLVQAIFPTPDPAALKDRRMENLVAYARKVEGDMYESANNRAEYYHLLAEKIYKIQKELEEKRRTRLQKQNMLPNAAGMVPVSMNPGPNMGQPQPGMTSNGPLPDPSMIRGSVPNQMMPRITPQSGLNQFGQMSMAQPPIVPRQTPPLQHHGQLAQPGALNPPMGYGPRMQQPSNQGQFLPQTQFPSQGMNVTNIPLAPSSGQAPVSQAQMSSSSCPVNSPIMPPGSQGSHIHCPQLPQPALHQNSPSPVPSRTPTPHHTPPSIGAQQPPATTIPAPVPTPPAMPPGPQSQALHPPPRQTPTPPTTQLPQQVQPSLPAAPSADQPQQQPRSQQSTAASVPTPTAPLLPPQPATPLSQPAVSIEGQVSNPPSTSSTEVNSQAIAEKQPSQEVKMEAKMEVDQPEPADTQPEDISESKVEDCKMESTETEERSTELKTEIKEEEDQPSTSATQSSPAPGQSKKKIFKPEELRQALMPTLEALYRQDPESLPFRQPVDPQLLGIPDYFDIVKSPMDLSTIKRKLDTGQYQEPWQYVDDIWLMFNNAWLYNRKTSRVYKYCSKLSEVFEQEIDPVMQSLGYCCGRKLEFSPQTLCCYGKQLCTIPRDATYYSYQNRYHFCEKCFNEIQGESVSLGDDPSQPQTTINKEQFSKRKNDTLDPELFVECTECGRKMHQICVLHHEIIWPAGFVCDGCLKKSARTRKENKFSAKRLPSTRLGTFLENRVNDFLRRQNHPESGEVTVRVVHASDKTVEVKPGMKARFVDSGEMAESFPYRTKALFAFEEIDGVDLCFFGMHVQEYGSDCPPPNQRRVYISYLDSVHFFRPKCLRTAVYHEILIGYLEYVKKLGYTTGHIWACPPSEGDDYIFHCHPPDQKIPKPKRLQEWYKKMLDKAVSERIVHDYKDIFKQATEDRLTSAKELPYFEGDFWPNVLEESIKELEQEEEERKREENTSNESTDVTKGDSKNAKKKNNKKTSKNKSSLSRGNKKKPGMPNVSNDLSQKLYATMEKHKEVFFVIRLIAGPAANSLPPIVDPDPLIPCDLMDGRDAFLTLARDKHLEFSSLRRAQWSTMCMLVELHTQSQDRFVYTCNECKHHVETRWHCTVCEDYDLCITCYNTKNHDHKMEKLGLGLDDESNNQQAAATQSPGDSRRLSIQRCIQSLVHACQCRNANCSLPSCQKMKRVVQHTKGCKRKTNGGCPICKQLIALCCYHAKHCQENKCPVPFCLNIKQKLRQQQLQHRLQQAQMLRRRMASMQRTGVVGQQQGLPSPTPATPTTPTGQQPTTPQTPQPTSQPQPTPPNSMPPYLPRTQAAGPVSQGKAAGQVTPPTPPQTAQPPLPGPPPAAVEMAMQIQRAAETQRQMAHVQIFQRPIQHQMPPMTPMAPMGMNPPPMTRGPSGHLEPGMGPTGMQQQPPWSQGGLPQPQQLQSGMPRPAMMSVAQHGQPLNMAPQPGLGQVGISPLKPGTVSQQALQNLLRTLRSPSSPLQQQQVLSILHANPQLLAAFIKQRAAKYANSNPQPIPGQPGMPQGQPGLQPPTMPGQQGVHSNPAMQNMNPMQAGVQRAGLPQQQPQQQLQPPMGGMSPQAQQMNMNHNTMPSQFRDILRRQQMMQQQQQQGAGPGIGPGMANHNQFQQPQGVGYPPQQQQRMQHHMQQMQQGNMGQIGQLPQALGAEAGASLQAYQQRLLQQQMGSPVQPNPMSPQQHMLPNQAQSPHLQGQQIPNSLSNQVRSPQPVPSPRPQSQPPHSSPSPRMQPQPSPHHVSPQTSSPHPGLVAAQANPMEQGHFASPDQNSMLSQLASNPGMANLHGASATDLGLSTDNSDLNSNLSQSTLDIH

A word on the pIC50: it is the IC50 on a negative log10 scale, so that one unit is a factor of ten. Low readings indicate a high IC50, high ones a low IC50. In the case of `CC(=O)N1CCc2c(c(N3CCCc4cc(-c5cnn(C)c5)c(C(F)F)cc43)nn2C2CCN(CC3CCN(CC#Cc4cccc5c4C(=O)N(C4CCC(=O)NC4=O)C5=O)CC3)CC2)C1` (stereo not drawn) [P-150, 4-(3-(4-((4-(5-Acetyl-3-(7-(difluoromethyl)-6-(1-methyl-1H-pyrazol-4-yl)-3,4-dihydroquinolin-1(2H)-yl)-4,5,6,7-tetrahydro-1H-pyrazolo[4,3-c]pyridin-1-yl)piperidin-1-yl)methyl)piperidin-1-yl)prop-1-yn-1-yl)-2-(2,6-dioxopiperidin-3-yl)isoindoline-1,3-dione], the pIC50 in the assay on LNCaP cells (CellTiter-Glo (Table 3)) is 6.72. In addition, the inhibition at 0.01 µM on P300 (setting [1]) is greater than 80%. In turn, `CNC(=O)N1CCc2c(c(N3CCCc4cc(-c5cnn(C)c5)c(C(F)F)cc43)nn2C2CCN(C(=O)CCC(=O)N[C@H](C(=O)N3C[C@H](O)C[C@H]3C(=O)NCc3ccc(-c4scnc4C)cc3)C(C)(C)C)CC2)C1` [P-056, 3-(7-(Difluoromethyl)-6-(1-methyl-1H-pyrazol-4-yl)-3,4-dihydroquinolin-1(2H)-yl)-1-(1-(4-(((S)-1-((2S,4R)-4-hydroxy-2-((4-(4-methylthiazol-5-yl)benzyl)carbamoyl)pyrrolidin-1-yl)-3,3-dimethyl-1-oxobutan-2-yl)amino)-4-oxobutanoyl)piperidin-4-yl)-N-methyl-1,4,6,7-tetrahydro-5H-pyrazolo[4,3-c]pyridine-5-carboxamide] gave a negative logarithm of the IC50 (pIC50) with LNCaP cells (CellTiter-Glo (Table 3)) of 7.12. In addition, the inhibition at 0.01 µM at P300 (setting [1]) was less than 20%. For `CNC(=O)N1CCc2c(c(N3CCCc4cc(-c5cnn(CC(=O)NCCOCC(=O)N[C@H](C(=O)N6C[C@H](O)C[C@H]6C(=O)NCc6ccc(-c7scnc7C)cc6)C(C)(C)C)c5)c(C(F)F)cc43)nn2C2CCOCC2)C1` [P-073, 3-(7-(Difluoromethyl)-6-(1-(2-((2-(2-(((S)-1-((2S,4R)-4-hydroxy-2-((4-(4-methylthiazol-5-yl)benzyl)carbamoyl)pyrrolidin-1-yl)-3,3-dimethyl-1-oxobutan-2-yl)amino)-2-oxoethoxy)ethyl)amino)-2-oxoethyl)-1H-pyrazol-4-yl)-3,4-dihydroquinolin-1(2H)-yl)-N-methyl-1-(tetrahydro-2H-pyran-4-yl)-1,4,6,7-tetrahydro-5H-pyrazolo[4,3-c]pyridine-5-carboxamide], in that order: less than 5.00 and less than 20%. The compound `CNC(=O)N1CCc2c(c(N3CCCc4cc(-c5cnn(C)c5)c(C(F)F)cc43)nn2C2CCN(C(=O)CCOCCOCCOCCNc3ccc4c(c3)C(=O)N(C3CCC(=O)NC3=O)C4=O)CC2)C1` (stereo not drawn) [P-010, 3-(7-(Difluoromethyl)-6-(1-methyl-1H-pyrazol-4-yl)-3,4-dihydroquinolin-1(2H)-yl)-1-(1-(3-(2-(2-(2-((2-(2,6-dioxopiperidin-3-yl)-1,3-dioxoisoindolin-5-yl)amino)ethoxy)ethoxy)ethoxy)propanoyl)piperidin-4-yl)-N-methyl-1,4,6,7-tetrahydro-5H-pyrazolo[4,3-c]pyridine-5-carboxamide] showed a pIC50 in the assay with LNCaP cells (CellTiter-Glo (Table 2)) of 6.82. Moreover, the inhibition at 0.01 µM at P300 (percentage of inhibition of p300 at 10 nM (Table 2)) lay within 20 to 50%.

As to `CNC(=O)N1CCc2c(c(N3CCCc4cc(-c5cnn(C)c5)c(C(F)F)cc43)nn2C2CCN(C(=O)CCCCC#Cc3cccc4c3C(=O)N(C3CCC(=O)NC3=O)C4)CC2)C1` (stereo not drawn) [P-094, 3-(7-(Difluoromethyl)-6-(1-methyl-1H-pyrazol-4-yl)-3,4-dihydroquinolin-1(2H)-yl)-1-(1-(7-(2-(2,6-dioxopiperidin-3-yl)-3-oxoisoindolin-4-yl)hept-6-ynoyl)piperidin-4-yl)-N-methyl-1,4,6,7-tetrahydro-5H-pyrazolo[4,3-c]pyridine-5-carboxamide], the negative logarithm of the IC50 (pIC50) in the assay on LNCaP cells (CellTiter-Glo (Table 3)) was 6.64.

Source of the values: patent US20230073777A1, “CYCLIC-AMP RESPONSE ELEMENT BINDING PROTEIN (CBP) AND/OR ADENOVIRAL E1A BINDING PROTEIN OF 300 KDA (P300) DEGRADATION COMPOUNDS AND METHODS OF USE” (CULLGEN (SHANGHAI), INC., priority 2019, published 2023).
